Several values for one entry are separate records, joined by “and”; a condition that tells them apart may be missing. Identical values can stand only once. Like-named read-outs stand apart in the source and are kept apart here. Marks after values point to notes of the source that are not given here.
How the values were obtained:
CYP2B1/2B2 = test: Western blot analysis of rat hepatic proteins after PB treatment; format: in vivo; design: key: Highly Induced: Not detected in control but strong band after PB treatment.; Moderately Induced: Not detected in control but bands with a medium intensity detected after PB treatment; conditions: rat hepatic microsomal proteins, PB treated vs control
Procedure: (§1) SDS-PAGE was carried out on 10% or 15% gels. The separated proteins were electroblotted onto cellulose membrane and Western blot analyses were carried out using horseradish peroxidase-system with electrochemiluminescent substrates.
(§2) This microarray result was obtained by combining results from Control 1 and PB 1 assays and Control 2 and PB 2 assays. Expression levels of CYP2B1/2B2, CYP2B1, COX-2, CYP2D, CYP3A1/2/23, CYP2C11 and G3PDH in Rat #1 (Control 1), Rat #2 (PB 1), Rat #3 (Control 2) and Rat #4 (PB 2) were verified by Western blot analyses of microsomal and cytosolic proteins. Protein bands obtained by Western blot analyses were quantitated using a densitometer (Molecular Dynamics). […] COX-2 expression usually detected in microsomes also detected in cytosol. The cytosolic COX-2 levels were normalized by G3PDH levels.

Tubulin-alpha = conditions: rat hepatic proteins after PB treatment, 500 μg/ml IgG (ascites fluid), Flag internal control
CYP3A (CYP3A1/2/23) = conditions: anti-serum spots, IgG concentration not given
Alpha-actin = conditions: rat hepatic proteins after PB treatment; 500 μg/ml IgG (ascites fluid); Flag internal control
CYP3A = test: Western blot analysis of rat hepatic proteins after PB treatment; format: in vivo; conditions: rat hepatic microsomal proteins, PB treated vs control; two sets; mean and difference from the mean
Procedure: as §1, §2

CYP2D = test: as above; format: in vivo; conditions: rat hepatic microsomal proteins, PB treated vs control; two sets; mean and difference from the mean
Procedure: as §1, §2

Tubulin-beta = conditions: rat hepatic proteins after PB treatment; 500 μg/ml IgG; Flag internal control

CCC1(c2ccccc2)C(=O)NC(=O)NC1=O [phenobarbital]
fold-increase of protein expression level, Western Blot Analysis, CYP2B1/2B2 (CYP2B1/2B2): Highly Induced^b
Fold-Change of Protein Expression Level, Tubulin-alpha (Tubulin-alpha): 1.7 fold and 1.7^a fold
Fold-Change of Protein Expression Level, Tubulin-alpha (Tubulin-alpha; listed as PB): 1.7 fold
CYP3A expression after phenobarbital treatment, array analysis (CYP3A (CYP3A1/2/23)): increased higher than two-fold
Fold-Change of Protein Expression Level, Alpha-actin (Alpha-actin): 0.8 fold
fold-increase of protein expression level, Western Blot Analysis, CYP3A (CYP3A): 7.00 ± 4.80^d fold
fold-increase of protein expression level, Western Blot Analysis, CYP2D (CYP2D): failed to increase
Fold-Change of Protein Expression Level, Tubulin-beta (Tubulin-beta): 0.7 fold
